Measured values as given in patent publication US20080139794A1, “Accelerants for the modification of non-natural amino acids and non-natural amino acid polypeptides” (Ambrx, Inc., priority 2005, published 2008).

How the values were obtained:
wild type hGH = wild type hGH (Homo sapiens, UniProt P01241); experiment: LCMS analysis of hGH after incubation with accelerant; settings: wild type hGH 5.8 mg/ml; up to 200 mM accelerant; 28° C.; 48 hour
Method: In hGH reaction buffer, wild type hGH (5.8 mg/ml) was incubated with various concentrations of the accelerant acetic hydrazide (200 mM, 100 mM, 50 mM, 25 mM, 12.5 mM, 6.25 mM and 0 mM) at 28° C. for 48 hours. The accelerant was removed through dialysis (10 k MWCO). The resulting protein solutions were analyzed by LCMS (FIG. 8).]
The measured molecular weights of hGH in all the conditions are same and match theoretical value 22256.

scFv 108 259-pAcF [1] = experiment: Mono hydroxylamine 30 K PEG and scFv-pAcF conjugation (SDS-PAGE); settings: 28° C.
Method: scFv 108 259-pAcF 0.5 mM stock solution in reaction buffer mentioned above (10 μl) is mixed with various amounts of mono hydroxylamine 30 K PEG 2.5 mM stock solution, 2.2 μl of 200 mM acetic hydrazide stock solution and reaction buffer. The reaction mixtures with a final reaction volume of 22 μl have different molar ratios of scFv:PEG (1:3 or 1:5). The accelerating effect of acetic hydrazide on conjugation of mono hydroxylamine 30 K PEG and scFv was evaluated at protein and PEG molar ratio of 1:3 and 1:5 with and without accelerant. The reaction mixtures were incubated at 28° C. and were analyzed at different time points (20 hours, 44 hours) by SDS-PAGE (FIG. 3). Lanes 1, 2, and 3 show 100%, 20%, and 10% of the starting scFv-pAcF, respectively. Lane 4 of the 20 hour and 44 hour gels show reaction mixtures with a scFv:PEG molar ratio of 1:3 with 20 mM acetic hydrazide. Lane 5 of the 20 hour and 44 hour gels show reaction mixtures with a scFv:PEG molar ratio of 1:3 without accelerant. Lane 6 of the 20 hour and 44 hour gels show reaction mixtures with a scFv:PEG molar ratio of 1:5 with 20 mM acetic hydrazide. […]
Similarly, the relative conjugation efficiency of different concentrations of the accelerant acetic hydrazide (5 mM, 20 mM, 80 mM) with a scFv:30 K PEG mono hydroxylamine molar ratio of 1:2 were evaluated (FIG. 4). […]

scFv 108 259-pAcF [2] = experiment: One step dimerization of scFv-pAcF with homobifunctional 2 K hydroxylamine PEG linker (SDS-PAGE); settings: 47 mM acetic hydrazide; 147 μM homobifunctional 2 K PEG linker; pH 4.0; 28° C.; without accelerant very little dimer after 20 hours
Method: Single chain Fv (scFv) 108 protein with para-acetylphenylalanine substituted at position 259 (scFv 108 259-pAcF) was used the following conjugation experiment. scFv 108 259-pAcF in storage buffer was buffer exchanged into reaction buffer (150 mM NaCl, 20 mM NaOAc, 5 mM EDTA, pH 4.0) using a PD 10 column. The protein solution was concentrated to 0.5 mM, mixed with hydroxylamine homobifunctional 2 K PEG linker 2.5 mM stock solution and supplemented with acetic hydrazide as accelerant. The final reaction mixture consisted of 147 μM homobifunctional 2 K PEG linker, the corresponding concentration of pAcF-substituted scFv and 47 mM acetic hydrazide. The reaction mixtures were incubated at 28° C. and analyzed at different time points (6 hours, 20 hours, 44 hours) by SDS-PAGE (FIG. 2).
To make the one-step reaction more efficient and more practical with the homobifunctional 2 K PEG linker, accelerants were used to facilitate the dimerization process. Without accelerant, very little dimer product could be detected after 20 hours by SDS-PAGE. Lane 4 of the 6 hour, 20 hour, and 44 hour gels show reaction mixtures with a scFv:PEG linker molar ratio of 2.0:1 without the accelerant acetic hydrazide. […] Lane 1 of the 6 hour, 20 hour, and 44 hour gels show reaction mixtures with a scFv:PEG linker molar ratio of 1.6:1 with acetic hydrazide. […]

[3] = tested on: hGH with para-acetylphenylalanine substituted for tyrosine at position 35 (hGH-pAcF), oxime formation with mono hydroxylamine 30 K PEG; experiment: Screening of potential accelerants using 30 K PEG hGH-pAcF conjugation (SDS-PAGE); set-up: species or system human; settings: 50 mM accelerant; hGH 8 mg/ml; hGH:PEG 1:2; 28° C.; 16 hours
Method: Human growth hormone (hGH) with para-acetylphenylalanine substituted for tyrosine at position 35 was used to screen a panel of 20 compounds (FIG. 5). hGH was buffer exchanged into hGH reaction buffer (20 mM NaOAc, 20 mg/ml glycine, 5 mg/ml Mannitol, 1 mM EDTA, pH 4.0) using a PD 10 column, and concentrated to 10 mg/ml using a Centrocon (10 K MWCO) concentrator. hGH (10 μl) was mixed with 3.6 μl mono hydroxylamine 30 K PEG (2.5 mM), 3 μl of potential accelerant solution (200 mM in hGH reaction buffer) and buffer to give a final volume of 30 μl. The molar ratio of hGH:PEG was 1:2. The reaction mixtures were incubated at 28° C. for 16 hours and 36 hours and analyzed by SDS-PAGE (FIG. 6). The last lane in each gel was a control reaction (no accelerant). Compounds 6, 7, 8, 10, and 20 were accelerants. Two compounds from the panel, compounds 7 and 20 (acetic hydrazide) (pictured in FIG. 5), were accelerants and were further evaluated under similar reaction conditions with a higher hGH protein concentration (8 mg/ml). Lane 1 was a reaction mixture with a hGH:PEG molar ratio of 1:2 and 50 mM of accelerant compound 7. Lane 2 was a reaction mixture with a hGH:PEG molar ratio of 1:2 and 50 mM of accelerant compound 20. Lane 3 was a reaction mixture with a hGH:PEG molar ratio of 1:2 with no accelerant. Lane 4 was a reaction mixture with a hGH:PEG molar ratio of 1:5 with no accelerant.

Sequence of wild type hGH (P01241 with tags, fused parts or gaps): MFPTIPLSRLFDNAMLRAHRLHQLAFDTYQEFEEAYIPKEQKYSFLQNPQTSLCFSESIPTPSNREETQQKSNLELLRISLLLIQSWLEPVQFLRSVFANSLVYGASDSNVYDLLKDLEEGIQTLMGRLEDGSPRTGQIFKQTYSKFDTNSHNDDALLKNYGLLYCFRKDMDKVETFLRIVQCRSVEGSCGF

CC(=O)NN [Compound 20, acetic hydrazide]
covalent modification of protein by accelerant (LCMS) (wild type hGH): no covalent modification could be detected | relative conjugation efficiency at different accelerant concentrations (scFv 108 259-pAcF [1]; 5 mM, 20 mM, 80 mM acetic hydrazide, scFv:PEG 1:2): the higher concentration of accelerant, the faster the conjugation | accelerating effect on conjugation of mono hydroxylamine 30 K PEG and scFv (scFv 108 259-pAcF [1]; 20 mM acetic hydrazide, scFv:PEG 1:3 and 1:5, with and without accelerant, 20 hours, 44 hours): accelerates the conjugation reaction | dimer product formation (scFv 108 259-pAcF [2]): the dimer product appeared after 6 hours | acceleration of hGH-pAcF / 30 K PEG conjugation at higher protein concentration [3]: shown to catalyze the reaction
